The source made the active and inactive calls. No cut-off for these calls is given here.
Columns and labels:
Type in all cases: functional, cell-based
MMGT12 [1] = assay: inhibition of LPS-induced TNF-alpha production in mouse MMGT12 cells at 1e-5 M concentration; Slight inhibition
MMGT12 [2] = assay: inhibition of LPS-induced nitrite accumulation in mouse MMGT12 cells at 1e-6 M concentration; Slight inhibition
MMGT12 [3] = assay: inhibition of LPS-induced nitrite accumulation in mouse MMGT12 cells at 1e-5 M concentration; Strong inhibition inhibition
MMGT12 [4] = assay: inhibition of LPS-induced TNF-alpha production in mouse MMGT12 cells at 1e-6 M; Major inhibition
MMGT12 [5] = assay: inhibition of LPS-induced TNF-alpha production in mouse MMGT12 cells at 1e-5 M; Major inhibition
MMGT12 [6] = assay: inhibition of LPS-induced TNF-alpha production in mouse MMGT12 cells at 1e-5 M to 1e-7 M concentration; No effect

Cc1c(C)c2c(c(C)c1O)CCC(C)(CCCCCCCCCCCCCCCCO)O2 (stereo unspecified)
Activity (MMGT12 [1]): Slight inhibition
Activity (MMGT12 [2]): Slight inhibition
Activity (MMGT12 [3]): Slight inhibition

Cc1c(C)c2c(c(C)c1O)CCC(C)(CCCCCCCCCCCCCCO)O2 (stereo unspecified)
Activity (MMGT12 [4]): Major inhibition
Activity (MMGT12 [5]): Major inhibition
Activity (MMGT12 [3]): Major inhibition

Cc1c(C)c2c(c(C)c1O)CCC(C)(CCC[C@H](C)CCCC(C)CCCC(C)C)O2 (single isomer, unassigned)
Activity (MMGT12 [6]): inactive

Cc1c(C)c2c(c(C)c1O)CCC(C)(CCCCCCCCCCCCO)O2 (stereo unspecified)
Activity (MMGT12 [4]): Major inhibition
Activity (MMGT12 [5]): Major inhibition
Activity (MMGT12 [3]): Major inhibition

Cc1c(C)c2c(c(C)c1O)CCC(C)(CCCCCCCCCCO)O2 (stereo unspecified)
Activity (MMGT12 [6]): inactive

From ChEMBL document CHEMBL1138719, “Tocopherol long chain fatty alcohols decrease the production of TNF-alpha and NO radicals by activated microglial cells” (Bioorg Med Chem Lett, 2004)
